“Also recorded” adds a separate entry of the source. Read-outs that look alike come from different tables or passages of the source.
Legend:
isolated rat adipocytes [1] = test: Leptin secretion/production by isolated cultured rat adipocytes (RIA); assay type: cell-based; settings: for Leptin (ng) Produced over 96 h / [Leptin] (ng/ml) at 96 h: isolated rat adipocytes, 96 h culture; for increase of leptin production/secretion: PDH kinase inhibitors vs control: DTNB 100 μM, NEM 0.1 μM, DCA 2 mM; for increase of leptin secretion/production: Malate 2-5 mM, fumarate 5 mM, alone or in combination, low insulin and glucose, over control; for effect on leptin secretion (in words): oleate/oleic acid 2 mM, low glucose
Method: (§1) Cell isolation/preparation: Adipocytes are prepared from epididymal fat pads from male Sprague-Dawley rats weighing 300-600 g. Epididymal fat depots are resected from halothane anesthetized rats under aseptic conditions and adipocytes are isolated by collagenase digestion by the Rodbell method (Rodbell M. Metabolism of isolated fat cells. I. Effects of hormones on glucose metabolism and lipolysis. J Biol Chem. 1964; 239: 375-380), with minor modifications as previously described (Mueller W M, Gregoire F M, Stanhope K L, Mobbs C V, Mizuno T M, Warden C H, Stem J S, Havel P J. Evidence that glucose metabolism regulates leptin secretion from isolated adipocytes. Endocrinology 139: 551-558, 1998; Mueller W M, Stanhope K L, Gregoire F, Evans J L, Havel P J. Effects of metformin and vanadium on leptin secretion from cultured rat adipocytes. Obesity Res. 8: 530-539, 2000; Medina E A, Stanhope K L, Mizuno T M, Mobbs C V, Gregoire F, Hubbard N E, Erickson K L, Havel P J. Effects of tumor necrosis factor alpha on leptin secretion and gene expression: relationship to changes of glucose metabolism in isolated rat adipocytes. Int J Obes Relat Metab Disord. 23: 896-903, 1999.). The isolated adipocytes are then incubated for 30 minutes at 37 C before being plated and cultured on Matrigel-coated plates.
(§2) Adipocyte Culture: Adipocytes are maintained in culture anchored to a basement membrane matrix (Matrigel, Becton Dickinson, Franklin Lakes, N.J.) or collagen from Cohesion Technologies, (Palo Alto, Calif.). Although all in vitro systems have inherent advantages and disadvantages, advantages of this system compared with cultures containing free-floating adipocytes are that the matrix simulates their normal basement membrane attachment and that the cells are maintained in close proximity to each other, allowing direct cell to cell contact. Together the cell contact and basement membrane attachment help to maintain differentiation, since adipocytes have a strong tendency to dedifferentiate in long-term (>24 h) culture. In addition, the matrix and the small amount of serum in the media both contain growth factors, which are also likely to help in maintaining cell differentiation. Furthermore, the adipocytes in this system are not exposed to toxic levels of oxygen at the interface of the media and the incubator atmosphere, as opposed to free-floating adipocytes which aggregate at the surface of the media. An advantage of the system over those containing minced adipose tissue is that all of the cells in the culture are equally exposed to the nutrients and the oxygen dissolved in the media. Thus, although clearly different from the in vivo situation, this system provides a more physiological environment than most systems for maintaining adipocytes in long-term culture.
(§3) In culturing each suspension, Matrigel is first thawed on ice to a liquid and uniformly applied to the surface of culture dishes (300 μl Matrigel/35 mm well). After the incubation period, 150 μl of the adipocyte suspension (2:1 ratio of packed cells to media) are plated on the Matrigel or collagen matrix. Adipocytes from each suspension are thoroughly mixed with a transfer pipette before plating to insure that a similar number adipocytes with a similar size distribution are added to the control and experimental wells for each suspension. The warmth of the added cells and buffer causes the Matrigel to gel around the adipocytes, or the neutralization of the acidic pH of the collagen solution to 7.0 solidifies the collagen, and both of these techniques effectively anchor the adipocytes to the culture dish. After a 30 minute incubation at 37° C., 2 ml of warm culture medium is added. The cells are maintained in an incubator at 37° C. for 96 hours with 6% CO2. Aliquots of adipocytes from each animal are divided into wells, with the different concentrations of insulin or other agents to be tested. In each plate an appropriate control well contains adipocytes from the same animal. […]

leptin promoter = test: Leptin promoter luciferase construct transfected into 3T3-L1 cells; assay type: cell-based
isolated rat adipocytes [2] = settings: cited from earlier work; for effect on leptin secretion (in words): citrate
cultured rat adipocytes = test: Adiponectin secretion by isolated cultured rat adipocytes over 96 h; assay type: cell-based; settings: DTNB 100 μM, DCA 2 mM; 96 h culture, n=6
Method: Several studies have reported that thiazolidenediones (TZDs), agonists of PPARγ, increase adiponectin expression and circulating levels in animals (Maeda, 2001; Yamauchi, 2001a; Ye, 2003). TZD (10 μM Troglitazone) stimulated of adiponectin secretion from cultured rat adipocytes from 3 different depots (n=6). Mesenteric fat produced the largest amount of adiponectin over 96 hours in culture. (FIG. 5A). Adiponectin secretion from both the control- and TZD-treated adipocytes was well correlated with the glucose utilization (control, r=0.79; p<0.001); (TZD-treated, r=0.84, p=<0.0001, FIG. 5B) showing that, similar to leptin production, glucose metabolism also is involved in the regulation of adiponectin production by adipocytes.
Insulin increased adiponectin production from 3 different fat depots, however as in the experiments with troglitazone, the mesenteric depot produced the most adiponectin (FIG. 6B). Like leptin, both basal and insulin-stimulated adiponectin secretion was highly correlated to glucose utilization (r=0.91, p<0.0001) (FIG. 6C), and inversely related to the proportion of glucose metabolized to lactate (r=−0.81, p<0.0001) (FIG. 6D).
Also paralleling the regulation of leptin, adiponectin secretion by isolated cultured adipocytes was increased during 96 h culture by inhibitors of PDH-K. DTNB (100 μM) increased adiponectin secretion by 40% (p<0.03, n=6, FIG. 7A). DCA (2 mM) increased adiponectin secretion by 23% (p<0.025, n=6, FIG. 7B). The increase in adiponectin induced by DTNB was highly correlated with glucose utilization (r=0.95, p<0.004). Furthermore in adipocytes transfected with antisense directed at PDH-K, adiponectin secretion was stimulated by 24.3±8.4%, p<0.05, n=7, FIG. 7C).
as §1
Adipocyte Culture: Adipocytes are maintained in culture anchored to a basement membrane matrix (Matrigel, Becton Dickinson, Franklin Lakes, N.J.) or collagen from Cohesion Technologies, (Palo Alto, Calif.). […]

isolated rat adipocytes [3] = test: Lactate production and proportion of glucose anaerobically metabolized to lactate in isolated cultured rat adipocytes; assay type: cell-based; settings: for Glucose to Lactate (%) / Lactate Produced (μg) over 96 h: isolated rat adipocytes, 96 h culture
Method: as §1, §2, §3

isolated rat adipocytes [4] = test: Glucose utilization (uptake) by isolated cultured rat adipocytes; assay type: cell-based; settings: for Glucose Uptake (μg) over 96 h: isolated rat adipocytes, 96 h culture
Method: as §1, §2, §3

isolated rat adipocytes [5] = test: Incorporation of glucose carbon into triglyceride in cultured adipocytes; assay type: cell-based; settings: DTNB 100 μM, NEM 0.1 μM, DCA 2 mM
Method: Incorporation of Glucose Carbon into Triglyceride: To measure glucose incorporation into triglyceride, cultures are exposed to media containing 0.01 uCi/ml of ^14C-glucose. After 96 hr, media and extracellular lipid is removed from the well and methanol added. Then scrape the collagen-cell matrix from the well and transfer into a 50 ml glass tube. Rinse the well and scrape again in methanol to assure complete transfer of cells. Total triglycerides will be extracted using the Folch method (Folch, 1957). An aliquot of the lipid extract will be placed into vials containing scintillation fluid then radioactivity will be measured.
The first measurement is used to calculate the amount of glucose incorporated into triglycerides. Another aliquot of the lipid extract is placed into pre-weighed aluminum pans to determine the total amount of triglyceride per well. The remaining lipid is saponified and acidified to separate the glycerol and fatty acids. An aliquot of the lipid extract is placed into vials containing scintillation fluid and counted. This second count represents the ^14C-glucose incorporation into fatty acids. By subtraction, the amount that was incorporated into triglyceride though glycerol is also determined. Glucose incorporation into triglyceride and into the fatty acid portion of the triglyceride are calculated by multiplying disintegration per min by total ug of glucose/well over the total DPM/well.

isolated rat adipocytes [6] = test: Glucose oxidation: incorporation of 14C-glucose into CO2 by isolated rat adipocytes; assay type: cell-based
Method: Substrate Oxidation: Oxidation is measured using a modification of the method of Rodbell (Rodbell, 1964) and a modification of the cell culture system described by Bottcher and Furst (Bottcher, 1996). Briefly, adipocytes are isolated, counted and sized as previously described. Adipocytes are plated as described except they are placed in a sterile 20 ml scintillation vial instead of a well. Two ml of treatment media containing [U-^14C]-substrate (0.3 uCi/ml; glucose, fatty acids, malate, fumarate, pyruvate) is added to the vials. The vials are filled with 95% O2-5% CO2 gas and capped with rubber stoppers fitted with a hanging center well. Each well contains a 2×8 cm strip of Whatman No. 1 paper. Vials are maintained at 37° C. for 48 hr. After 48 hr, a sample of media is removed from each vial using a 4 inch, 23 gauge needle. Using another syringe and 23 gauge needle, 200 ul of sodium benzethonium is placed onto the paper strip and hanging well to capture CO2. Concentrated sulfuric acid is added to the vial in order to lyse cells and liberate all CO2 from the collagen matrix. After 24 hours, the hanging well and paper are transferred to another vial containing scintillation fluid and counted. The data are expressed as % DPM recovered as CO2 of the total DPM remaining in the media at 48 hours and as micromoles of substrate oxidized over time.

[7] = DCA 2.0 mM + insulin 0.48 nM vs control (insulin only)
[8] = NEM 0.1 μM + insulin 0.48 nM vs control (insulin only)
[9] = DTNB 100 μM, NEM 0.1 μM, DCA 2 mM

SMILES: O=CC[C@@H](O)[C@H](O)[C@H](O)CO [2-DG, 2-deoxy-D-glucose]
- effect on leptin secretion and ob gene expression (in words) (isolated rat adipocytes [1]; 2-DG treatment): suppressed
- effect on activity of control plasmid (in words) (leptin promoter; insulin 10 nM, 2-DG 10 mg/dl): unaffected
- effect on leptin promoter activity (in words) (leptin promoter; insulin 0.1 to 10 nM, 2-DG 10 mg/dl on basal and insulin-stimulated (10 nM) activity): markedly inhibited; also recorded: completely blocked

SMILES: O=C(O)CC(O)(CC(=O)O)C(=O)O [Citrate]
- effect on leptin secretion (in words) (isolated rat adipocytes [2]; low glucose and insulin concentration): stimulates
- effect on leptin secretion (in words) (isolated rat adipocytes [2]; presence of high insulin and glucose): does not affect

SMILES: O=C(O)C(Cl)Cl [DCA, Dichloroacetate]
- increase of adiponectin secretion (cultured rat adipocytes): 23%
- % ΔLeptin Produced over 96 h (isolated rat adipocytes [1]; [7]): +17.6 ± 4.7%
- % Δ[Leptin] (ng/ml) at 96 h (isolated rat adipocytes [1]; [7]): +17.9 ± 7.9%
- Change in Parameter: Leptin (ng) Produced over 96 h (isolated rat adipocytes [1]; [7]): +12.9 ± 3.6 ng
- Change in Parameter: [Leptin] (ng/ml) at 96 h (isolated rat adipocytes [1]; [7]): +3.6 ± 1.0 ng/ml
- Leptin (ng) Produced over 96 h (isolated rat adipocytes [1]; DCA 2.0 mM + insulin 0.48 nM): 88.3 ± 7.5 ng
- [Leptin] (ng/ml) at 96 h (isolated rat adipocytes [1]; DCA 2.0 mM + insulin 0.48 nM): 27.0 ± 2.6 ng/mL
- increase of leptin production/secretion (isolated rat adipocytes [1]; cultured adipocytes): 20-25%
- Change in Parameter: Glucose to Lactate (%) (isolated rat adipocytes [3]; [7]): −16.1 ± 1.3%
- Change in Parameter: Lactate Produced (μg) over 96 h (isolated rat adipocytes [3]; [7]): -181 ± 10 µg
- Glucose to Lactate (%) (isolated rat adipocytes [3]; DCA 2.0 mM + insulin 0.48 nM): 7.9 ± 0.9%
- Lactate Produced (μg) over 96 h (isolated rat adipocytes [3]; DCA 2.0 mM + insulin 0.48 nM): 81 ± 4 µg
- Change in Parameter: Glucose Uptake (μg) over 96 h (isolated rat adipocytes [4]; [7]): -46 ± 57 µg
- Glucose Uptake (μg) over 96 h (isolated rat adipocytes [4]; DCA 2.0 mM + insulin 0.48 nM): 1082 ± 117 µg

SMILES: O=C(O)CC(O)C(=O)O (stereo not drawn) [Malate]
- increase of leptin secretion/production (isolated rat adipocytes [1]): 20%
- increase of leptin secretion/production (isolated rat adipocytes [1]; listed as malate): +20%

SMILES: CCN1C(=O)C=CC1=O [NEM, N-ethylmaleimide]
- % ΔLeptin Produced over 96 h (isolated rat adipocytes [1]; [8]): +26.6 ± 6.2%
- % Δ[Leptin] (ng/ml) at 96 h (isolated rat adipocytes [1]; [8]): +25.3 ± 6.3%
- Change in Parameter: Leptin (ng) Produced over 96 h (isolated rat adipocytes [1]; [8]): +14.2 ± 4.2 ng
- Change in Parameter: [Leptin] (ng/ml) at 96 h (isolated rat adipocytes [1]; [8]): +4.0 ± 1.0 ng/ml
- Leptin (ng) Produced over 96 h (isolated rat adipocytes [1]; NEM 0.1 μM + insulin 0.48 nM): 63.4 ± 8.2 ng
- [Leptin] (ng/ml) at 96 h (isolated rat adipocytes [1]; NEM 0.1 μM + insulin 0.48 nM): 18.4 ± 2.4 ng/mL
- effect on leptin production/secretion (in words) (isolated rat adipocytes [1]; PDH kinase inhibitors DTNB, NEM, DCA, cultured adipocytes): increase
- increase of leptin production/secretion (isolated rat adipocytes [1]; cultured adipocytes): 25%
- effect on glucose not converted to lactate or incorporated into TG (OTHER; glucose flux into oxidation), by subtraction (in words) (isolated rat adipocytes [3]; [9]): increased
- effect on proportion of glucose anaerobically metabolized to lactate (in words) (isolated rat adipocytes [3]; [9]): decreased
- effect on lactate production (in words) (isolated rat adipocytes [3]; DTNB 100 μM, NEM 0.1 μM, DCA 0.1 to 5.0 mM): without any increase
- Change in Parameter: Glucose to Lactate (%) (isolated rat adipocytes [3]; [8]): −6.9 ± 2.3%
- Change in Parameter: Lactate Produced (μg) over 96 h (isolated rat adipocytes [3]; [8]): -10 ± 13 µg
- Glucose to Lactate (%) (isolated rat adipocytes [3]; NEM 0.1 μM + insulin 0.48 nM): 13.6 ± 1.5%
- Lactate Produced (μg) over 96 h (isolated rat adipocytes [3]; NEM 0.1 μM + insulin 0.48 nM): 178 ± 11 µg
- effect on proportion of glucose incorporated into TG (in words) (isolated rat adipocytes [5]): without affecting
- effect on total / insulin-mediated glucose utilization (in words) (isolated rat adipocytes [4]; [9]): increased
- Change in Parameter: Glucose Uptake (μg) over 96 h (isolated rat adipocytes [4]; [8]): +348 ± 114 μg
- Glucose Uptake (μg) over 96 h (isolated rat adipocytes [4]; NEM 0.1 μM + insulin 0.48 nM): 1399 ± 132 µg

SMILES: CCCCCCCC/C=C\CCCCCCCC(=O)O [oleate, oleic acid]
- effect on leptin secretion (in words) (isolated rat adipocytes [1]): increased
- effect on leptin secretion (in words) (isolated rat adipocytes [1]; listed as oleic acid): increases
- inhibition at 2000 µM (isolated rat adipocytes [6]; Rattus norvegicus, Adipocyte, oleate 2 mM, n=7): 30%
- effect on glucose oxidation (in words) (isolated rat adipocytes [6]; oleic acid 2 mM, low glucose): inhibits

SMILES: [F-].[Na+] [sodium fluoride]
- effect on leptin expression and secretion (in words) (isolated rat adipocytes [2]; glycolysis suppressed with sodium fluoride): reduced

Reference: patent US20070203225A1, “METHOD OF INCREASING ENDOGENOUS ADIPONECTIN PRODUCTION AND LEPTIN PRODUCTION” (priority 2001, published 2007)
